Test results from publication PMC8466373, “Plant-Derived and Dietary Hydroxybenzoic Acids—A Comprehensive Study of Structural, Anti-/Pro-Oxidant, Lipophilic, Antimicrobial, and Cytotoxic Activity in MDA-MB-231 and MCF-7 Cell Lines” (Nutrients, 2021).
In brackets after ≈: the same amount, converted by molar mass. Several values for one entry are separate records, joined by “and”; a condition that tells them apart may be missing. Equal entries are not always repeated. Where two headings read alike, the source gives them in different places. Marks after values point to notes of the source that are not given here.

How the values were obtained:
[1] = Cytotoxicity, neutral red (NR) assay; format: cell-based, human; conditions: human, 48 h treatment, neutral red assay
Protocol: (§1) Briefly, MCF-7 cells were cultured in EMEM (Biological Industries, Israel) medium supplemented with 10% fetal calf serum (Gibco). MDA-MB-231 cells were cultured in Leibovitz‘s L15 (Biological Industries, Beit HaEmek, Israel) medium supplemented with 10% fetal calf serum (Gibco). The MCF-7 cells were incubated in a 5% CO2 atmosphere at 37 °C, whereas the MDA-231 cells were incubated in a 100% air atmosphere at 37 °C.
(§2) Cytotoxicity evaluation was conducted to assess the impact of hydroxybenzoic acids on the proliferation of MCF-7 and MDA-MB-231 cells, which was measured via neutral red (NR) assay. In brief, cells were seeded in 96-well microplates (TPP, Switzerland) at a density of 2 × 10^4 cells/well in 100 μL of culture medium. At least three independent experiments in six replicate wells were conducted per concentration. Twenty-four hours after cell seeding, cells were treated with increasing concentrations of hydroxybenzoic acids (0.02–5 mM) for forty-eight hours. After treatment, cells were incubated for 3 h at 37 °C with 100 µL of neutral red solution (stock solution of NR) (Sigma-Aldrich), and then 5 mg/mL of PBS was diluted 1:100 in cell culture medium, incubated for 12 h at 37 °C, and centrifuged to remove any undissolved NR powder. […] After 15 min of gentle shaking, optical density was read at 540 nm with an Infinite M200 plate reader spectrophotometer (Tecan, Austria).

[2] = test system: Candida albicans (PCM 2566-FY); experiment: MIC by serial dilution in agar medium; format: cell-based
Protocol: (§3) The following bacterial strains were used in this study: Escherichia coli (PCM 2857), Pseudomonas aeruginosa (PCM 2720), Bacillus subtilis (PCM 2850), Staphylococcus aureus (PCM 2267), Salmonella enteritidis (NCTC 4776), and Candida albicans (PCM 2566-FY). The microbial strains were bought from the Polish Collection of Microorganisms (Wroclaw, Poland) or the American Type Culture Collection. Bacteria (0.1 mL of the reconstituted suspension) were seeded onto sterile Mueller–Hinton agar plates (Biomaxima), to which previously suitable amounts of the tested compounds were added to give the desired concentration.
(§4) The MIC (minimal inhibitory concentration) was determined by serial dilution of the tested compound in an agar medium, to which the appropriate inoculum of microorganisms was then added and incubated. Escherichia coli, Pseudomonas aeruginosa, Staphylococcus aureus, Bacillus subtilis, Salmonella enteritidis, and Candida albicans were grown overnight and then resuspended in physiological saline to an optical density at 600 nm (OD = 600) of 0.60, corresponding to 5.0 × 10^8 CFU/mL. Bacteria (0.1 mL of the reconstituted suspension) were seeded onto sterile Mueller–Hinton agar plates, to which previously suitable amounts of the tested compounds were added to reach the desired concentration. Tested chemicals were dissolved in DMSO solution. Negative controls were agar plates, to which DMSO was added, while positive controls were plates with gentamycin (in the case of bacteria) or flucanozole (in the case of fungi). The plates were incubated at 37 °C for 24 h. The lowest concentration without visible bacterial growth was determined as the MIC.

[3] = test system: Escherichia coli (PCM 2857); experiment: MIC by serial dilution in agar medium; format: cell-based
Protocol: as §3, §4

[4] = test system: Staphylococcus aureus (PCM 2267); experiment: MIC by serial dilution in agar medium; format: cell-based
Protocol: as §3, §4

[5] = test system: Pseudomonas aeruginosa (PCM 2720); experiment: MIC by serial dilution in agar medium; format: cell-based
Protocol: as §3, §4

[6] = test system: Bacillus subtilis (PCM 2850); experiment: MIC by serial dilution in agar medium; format: cell-based
Protocol: as §3, §4

[7] = test system: Salmonella enteritidis (NCTC 4776); experiment: MIC by serial dilution in agar medium; format: cell-based; conditions: Salmonella enterica
Protocol: The following bacterial strains were used in this study: Escherichia coli (PCM 2857), Pseudomonas aeruginosa (PCM 2720), Bacillus subtilis (PCM 2850), Staphylococcus aureus (PCM 2267), Salmonella enteritidis (NCTC 4776), and Candida albicans (PCM 2566-FY). The microbial strains were bought from the Polish Collection of Microorganisms (Wroclaw, Poland) or the American Type Culture Collection.
as §4

[8] = FRAP assay (ferric-reducing antioxidant power); format: biochemical; parameters: key: (-): Negative values were obtained for these acids; conditions: concentration of 50 μM, methanolic solutions
Protocol: FRAP assay was carried out as described in [42]. […] After 8 min of incubation at 23 °C, the absorbance at 595 nm was measured against the blank (containing 0.4 mL of methanol instead of the sample). Ferric-reducing antioxidant activity was expressed as Fe(II) ion equivalents (μM) using the calibration curve obtained for FeSO4 (the standard curve equation: y = 3.4303x − 0.1058; R^2 = 0.9984).

DPPH assay = format: biochemical; conditions: methanolic solutions, 60 min of reaction time
Protocol: DPPH assay was measured according to the method described by Rice-Evans. Appropriate volumes of methanolic solutions of the tested hydroxybenzoic acids (C = 30 μM) were mixed with methanol in test tubes to prepare a series of solutions of various concentrations (final volume 1 mL). Then, 2 mL of methanolic solution of DPPH^• (C = 60 μM) was added to each tube; the control contained methanol instead of the sample. The tubes with reaction mixtures were capped, vortexed, and left to stand for 60 min at 23 °C in the dark. The absorbance of the solutions was measured by the use of a Cary 5000 UV–Vis spectrophotometer (Santa Clara, CA, USA) at λ = 516 nm against pure methanol. […] The concentration of the tested hydroxybenzoic acids was plotted against the %I, and the IC50 values (antioxidant concentration that inhibited 50% of DPPH^• radicals) were calculated from the obtained scavenging curves.

ABTS assay = format: biochemical; conditions: 50 μM, methanolic solutions, 7 min of reaction time
Protocol: ABTS assay was conducted according to the procedure of Re et al.. […] The absorbance of the solutions was measured with a UV–Vis spectrophotometer at 734 nm against methanol (the blank). The ability to scavenge ABTS^•+ cation radicals was expressed as the %I of ABTS^•+ and calculated according to the aforementioned equation.

[9] = ref 102; cited from earlier work
[10] = cited from earlier work; for inhibition: read-out: DPPH radical scavenging activity (%)
MCF-7 cells = experiment: Cytotoxicity, neutral red (NR) assay; format: cell-based, human; conditions: for Cytotoxicity (mM) in Cell Line MCF-7, IC50: 48 h treatment, neutral red assay
Protocol: as §1, §2

MDA-MB-231 cells = experiment: Cytotoxicity, neutral red (NR) assay; format: cell-based, human; conditions: for Cytotoxicity (mM) in Cell Line MDA-MB-231, IC50: 48 h treatment, neutral red assay
Protocol: as §1, §2

[11] = MCF-7 cells (breast adenocarcinoma), read-out: Cytotoxicity (mM) in Cell Line MCF-7, IC50
[12] = MDA-MB-231 cells (breast adenocarcinoma), read-out: Cytotoxicity (mM) in Cell Line MDA-MB-231, IC50
[13] = Salmonella enteritidis, read-out: MIC
[14] = CDPPH = 60 μM, t = 30 min, read-out: DPPH, IC50
[15] = CDPPH = 90 μM, t = 30 min, read-out: DPPH, IC50
[16] = CDPPH = 1 mM, t = 20 min, read-out: DPPH, IC50
[17] = C = 10 μM, CDPPH = 100 μM, t = 30 min
[18] = C = 15 μM, CDPPH = 60 μM, t = 30 min
[19] = read-out: Cytotoxicity (mM) in Cell Line MCF-7, IC50
[20] = read-out: Cytotoxicity (mM) in Cell Line MDA-MB-231, IC50

SMILES | IC50 at 48 h [1, 11] [mM] | IC50 at 48 h [1, 12] [mM] | MIC ([2]; read-out: MIC) [µg/mL] | MIC ([3]; read-out: MIC) [µg/mL] | MIC ([4]; read-out: MIC) [µg/mL] | MIC ([5]; read-out: MIC) [µg/mL] | MIC ([6]; read-out: MIC) [µg/mL] | MIC [7, 13] [µg/mL] | FRAP [8] | IC50 (DPPH assay) [µM] | Inhibition of ABTS•+ radicals (%I) (ABTS assay) [%] | LogPexp. [9] | IC50 [10, 14] [µM] | IC50 [10, 15] [µM] | IC50 [10, 16] [µM] | inhibition [10, 17] [%] | inhibition [10, 18] [%] | IC50 at 48 h [1, 19] [mM] | IC50 at 48 h [1, 20] [mM] | Cytotoxicity (mM) in Cell Line MCF-7, IC50 (MCF-7 cells) | other results
O=C(O)c1cccc(O)c1O [2,3-DHB, 2,3-Dihydroxybenzoic acid] | > 5 | 4.1 | 5000 (≈ 32.4 mM) | 5000 (≈ 32.4 mM) | 5000 (≈ 32.4 mM) | 5000 (≈ 32.4 mM) | 5000 (≈ 32.4 mM) | 5000 (≈ 32.4 mM) | 173.79 µM Fe^2+ and 173.79 ± 39.06 µM Fe^2+ | 5.86 ± 0.64 | 86.40 | 1.20 [102] |  |  |  |  |  |  |  |  | 
O=C(O)c1cc(O)ccc1O [2,5-DHB, 2,5-dihydroxybenzoic acid] | > 5 | 4.39 | 5000 (≈ 32.4 mM) | 3000 (≈ 19.5 mM) | 5000 (≈ 32.4 mM) | 5000 (≈ 32.4 mM) | 3000 (≈ 19.5 mM) | 3000 (≈ 19.5 mM) | 236.00 µM Fe^2+ and 236.00 ± 6.31 µM Fe^2+ | 4.99 ± 0.79 | 80.11 |  | 6.3 | 37 | 0.0292 |  |  |  |  |  | IC50 ([10]; CDPPH = 60 μM, t = 60 min, read-out: DPPH, IC50): 4.95 µM
O=C(O)c1c(O)cccc1O [2,6-DHB, 2,6-dihydroxybenzoic acid] | > 5 | 3.97 | 3000 (≈ 19.5 mM) | 3000 (≈ 19.5 mM) | 5000 (≈ 32.4 mM) | 4000 (≈ 26 mM) | 3000 (≈ 19.5 mM) | 3000 (≈ 19.5 mM) | (-) * | 209 ± 0.98 | 8.12 | 2.20 [102] |  |  |  |  |  |  |  |  | IC50 ([10]; CDPPH = 500 μM, t = 30 min, read-out: DPPH, IC50): 232 µM
O=C(O)c1cc(O)c(O)c(O)c1 [3,4,5-THB, 3,4,5-trihydroxybenzoic acid] |  |  | 3000 (≈ 17.6 mM) | 3000 (≈ 17.6 mM) | 6000 (≈ 35.3 mM) | 4000 (≈ 23.5 mM) | 3000 (≈ 17.6 mM) |  | 158.10 µM Fe^2+ and 158.10 ± 14.81 µM Fe^2+ | 2.42 ± 0.08 | 79.50 | 0.70 [102] |  |  | 0.0237 | ~70 | 88.5 | 0.44 | 0.36 |  | inhibition ([10]; C ≈ 0.7 mM, CDPPH = 200 μM, t = 30 min): 40%; IC50 ([10]; after 30 min of incubation with a free radical, read-out: DPPH IC50): 4.2 µM; inhibition of growth of MCF-7 cells (MCF-7 cells; concentration of 5 mM): almost completely; inhibition of growth of MDA-MB-231 cells (MDA-MB-231 cells; concentration of 5 mM): almost completely
O=C(O)c1ccc(O)c(O)c1 [3,4-DHB, 3,4-dihydroxybenzoic acid] |  |  |  |  |  |  |  |  | 44.22 µM Fe^2+ and 44.22 ± 9.38 µM Fe^2+ | 5.24 ± 0.95 | 74.51 | 0.86 [102] | 15.8 |  | 0.0574 | ~70 | ~88.5 | > 5 | > 5 | nontoxic | IC50 ([10]; CDPPH = 50 μM, t = 30 min, read-out: DPPH, IC50): 3.83 µM; Cytotoxicity (mM) in Cell Line MDA-MB-231, IC50 (MDA-MB-231 cells): nontoxic; MIC [2]: 2000 µg/mL (≈ 13 mM); MIC [3]: 2000 µg/mL (≈ 13 mM); MIC [4]: 2000 µg/mL (≈ 13 mM); MIC [5]: 2000 µg/mL (≈ 13 mM); MIC [6]: 2000 µg/mL (≈ 13 mM); MIC [7]: 2000 µg/mL (≈ 13 mM)
O=C(O)c1cc(O)cc(O)c1 [3,5-DHB, 3,5-dihydroxybenzoic acid] | > 5 | > 5 | 2000 (≈ 13 mM) | 2000 (≈ 13 mM) | 2000 (≈ 13 mM) | 3000 (≈ 19.5 mM) | 2000 (≈ 13 mM) | 2000 (≈ 13 mM) | (-) * | > 1000 | 60.39 | 0.86 [102] |  | 385 |  |  |  |  |  | nontoxic | Cytotoxicity (mM) in Cell Line MDA-MB-231, IC50 (MDA-MB-231 cells): nontoxic
